In ChEMBL document CHEMBL4825658, “Discovery of 3-(4-(2-((1H-Indol-5-yl)amino)-5-fluoropyrimidin-4-yl)-1H-pyrazol-1-yl)propanenitrile Derivatives as Selective TYK2 Inhibitors for the Treatment of Inflammatory Bowel Disease” (J Med Chem, 2021):
Activity calls are given as the source filed them. The calls are words filed in the database; no cut-off is given here.

Tests used:
Mus musculus [1] = test: Anti-ulcerative colitis activity in DSS-induced C57BL/6 mouse ulcerative colitis model assessed as recovery of colon crypts at 20 mg/kg, po administrated for 6 days measured on day 9 by microscopy based histopathological analysis; assay type: functional, organism-based; conditions: time 6.0 day
Mus musculus [2] = test: Anti-ulcerative colitis activity in DSS-induced C57BL/6 mouse ulcerative colitis model assessed as increase in colon length at 10 to 20 mg/kg, po administrated for 6 days measured on day 9; assay type: functional, organism-based; conditions: dose 10-20 mg/kg, time 6.0 day
[3] = AUC (0 to t) in Sprague-Dawley rat at 5 mg/kg, iv by LC-MS/MS analysis; assay type: ADME, organism-based; set-up: dose 5 mg/kg; conditions: in vivo
[4] = target: Serine/threonine-protein kinase 16 (Homo sapiens) (UniProt O75716); test: Inhibition of human STK16 at 0.1 uM relative to control
Mus musculus [5] = test: Anti-ulcerative colitis activity in DSS-induced C57BL/6 mouse ulcerative colitis model assessed as recovery of body weight at 10 to 20 mg/kg, po administrated for 6 days measured on day 9; assay type: functional, organism-based; conditions: dose 10-20 mg/kg, time 6.0 day
[6] = AUC (0 to t) in Sprague-Dawley rat at 20 mg/kg, po by LC-MS/MS analysis; assay type: ADME, organism-based; set-up: dose 20 mg/kg; conditions: in vivo
Mus musculus [7] = test: Anti- inflammatory activity in DSS-induced C57BL/6 mouse ulcerative colitis model assessed as suppression of IL-6 content in serum at 20 mg/kg, po administrated for 6 days measured on day 9; assay type: functional, organism-based; conditions: time 6.0 day
Mus musculus [8] = test: Anti-inflammatory activity in DSS-induced C57BL/6 mouse ulcerative colitis model assessed as increase in IL-10 content in serum at 20 mg/kg, po administrated for 6 days measured on day 9; assay type: functional, organism-based; conditions: time 6.0 day
Mus musculus [9] = test: Anti-inflammatory activity in DSS-induced C57BL/6 mouse ulcerative colitis model assessed as suppression of TNFalpha content in colon tissue at 20 mg/kg, po administrated for 6 days measured on day 9; assay type: functional, organism-based; conditions: time 6.0 day
Mus musculus [10] = test: Anti-ulcerative colitis activity in DSS-induced C57BL/6 mouse ulcerative colitis model assessed as recovery of colon epithelial and mucosal structure at 20 mg/kg, po administrated for 6 days measured on day 9 by microscopy based histopathological analysis; assay type: functional, organism-based; conditions: time 6.0 day
[11] = Oral bioavailability in Sprague-Dawley rat at 20 mg/kg by LC-MS/MS analysis; assay type: ADME, organism-based; conditions: in vivo
Mus musculus [12] = test: Anti-ulcerative colitis activity in DSS-induced C57BL/6 mouse ulcerative colitis model assessed as reduction in fecal occult blood at 10 to 20 mg/kg, po administrated for 6 days measured on day 9; assay type: functional, organism-based; conditions: dose 10-20 mg/kg, time 6.0 day
[13] = Metabolic stability in cryopreserved human liver microsomes assessed as half life; assay type: ADME, Microsome
[14] = Half life in Sprague-Dawley rat at 5 mg/kg, iv by LC-MS/MS analysis; assay type: ADME, organism-based; conditions: in vivo
Mus musculus [15] = test: Anti-ulcerative colitis activity in DSS-induced C57BL/6 mouse ulcerative colitis model assessed as reduction in watery stool at 10 to 20 mg/kg, po administrated for 6 days measured on day 9; assay type: functional, organism-based; conditions: dose 10-20 mg/kg, time 6.0 day
[16] = Cmax in Sprague-Dawley rat at 20 mg/kg, po by LC-MS/MS analysis; assay type: ADME, organism-based; set-up: route oral, dose 20 mg/kg; conditions: in vivo
[17] = Tmax in Sprague-Dawley rat at 20 mg/kg, po by LC-MS/MS analysis; assay type: ADME, organism-based; conditions: in vivo
[18] = target: Receptor-type tyrosine-protein kinase FLT3 (Homo sapiens) (UniProt P36888); test: Inhibition of human FLT3 at 0.1 uM relative to control
[19] = Cmax in Sprague-Dawley rat at 5 mg/kg, iv by LC-MS/MS analysis; assay type: ADME, organism-based; set-up: route intravenous, dose 5 mg/kg; conditions: in vivo
[20] = Half life in Sprague-Dawley rat at 20 mg/kg, po by LC-MS/MS analysis; assay type: ADME, organism-based; conditions: in vivo
Mus musculus [21] = test: Anti-inflammatory activity in DSS-induced C57BL/6 mouse ulcerative colitis model assessed as suppression of TNFalpha content in serum at 20 mg/kg, po administrated for 6 days measured on day 9; assay type: functional, organism-based; conditions: time 6.0 day
[22] = MRT (0 to t) in Sprague-Dawley rat at 20 mg/kg, po by LC-MS/MS analysis; assay type: ADME, organism-based; conditions: in vivo
[23] = MRT (0 to t) in Sprague-Dawley rat at 5 mg/kg, iv by LC-MS/MS analysis; assay type: ADME, organism-based; conditions: in vivo
Mus musculus [24] = test: Anti-inflammatory activity in DSS-induced C57BL/6 mouse ulcerative colitis model assessed as suppression of IL-6 content in colon tissue at 20 mg/kg, po administrated for 6 days measured on day 9; assay type: functional, organism-based; conditions: time 6.0 day
[25] = Clearance in Sprague-Dawley rat at 5 mg/kg, iv by LC-MS/MS analysis; assay type: ADME, organism-based; conditions: in vivo
Mus musculus [26] = test: Anti-inflammatory activity in DSS-induced C57BL/6 mouse ulcerative colitis model assessed as increase in IL-10 content in colon tissue at 20 mg/kg, po administrated for 6 days measured on day 9; assay type: functional, organism-based; conditions: time 6.0 day
[27] = Volume of distribution at steady state in Sprague-Dawley rat at 5 mg/kg, iv by LC-MS/MS analysis; assay type: ADME, organism-based; conditions: in vivo

Sequence of Receptor-type tyrosine-protein kinase FLT3 (Homo sapiens) (P36888 whole entry): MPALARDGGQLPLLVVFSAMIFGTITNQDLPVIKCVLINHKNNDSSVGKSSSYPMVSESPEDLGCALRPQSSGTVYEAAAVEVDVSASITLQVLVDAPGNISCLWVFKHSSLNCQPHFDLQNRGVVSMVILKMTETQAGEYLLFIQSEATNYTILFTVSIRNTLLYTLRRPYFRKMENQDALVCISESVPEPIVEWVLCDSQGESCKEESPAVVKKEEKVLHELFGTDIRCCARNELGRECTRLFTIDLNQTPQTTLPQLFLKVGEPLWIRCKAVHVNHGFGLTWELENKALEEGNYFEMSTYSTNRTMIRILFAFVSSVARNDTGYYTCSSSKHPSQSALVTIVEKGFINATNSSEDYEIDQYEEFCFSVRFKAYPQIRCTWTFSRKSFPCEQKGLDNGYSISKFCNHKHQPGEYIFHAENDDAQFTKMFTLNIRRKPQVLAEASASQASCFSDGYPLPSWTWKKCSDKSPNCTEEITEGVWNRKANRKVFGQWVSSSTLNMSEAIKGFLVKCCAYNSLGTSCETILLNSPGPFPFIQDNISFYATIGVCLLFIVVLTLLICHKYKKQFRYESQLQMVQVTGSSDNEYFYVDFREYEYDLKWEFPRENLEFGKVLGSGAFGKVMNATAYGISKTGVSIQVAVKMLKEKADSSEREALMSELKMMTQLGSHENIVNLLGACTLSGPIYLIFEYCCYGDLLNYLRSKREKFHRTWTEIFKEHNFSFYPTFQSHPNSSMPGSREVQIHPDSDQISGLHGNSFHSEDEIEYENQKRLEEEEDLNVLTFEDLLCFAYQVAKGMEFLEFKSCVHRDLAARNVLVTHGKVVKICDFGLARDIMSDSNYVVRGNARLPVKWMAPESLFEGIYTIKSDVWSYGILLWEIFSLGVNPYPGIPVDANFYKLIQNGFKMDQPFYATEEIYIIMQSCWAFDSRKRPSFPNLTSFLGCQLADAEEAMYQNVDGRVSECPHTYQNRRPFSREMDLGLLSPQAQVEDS
Sequence of Serine/threonine-protein kinase 16 (Homo sapiens) (O75716 whole entry): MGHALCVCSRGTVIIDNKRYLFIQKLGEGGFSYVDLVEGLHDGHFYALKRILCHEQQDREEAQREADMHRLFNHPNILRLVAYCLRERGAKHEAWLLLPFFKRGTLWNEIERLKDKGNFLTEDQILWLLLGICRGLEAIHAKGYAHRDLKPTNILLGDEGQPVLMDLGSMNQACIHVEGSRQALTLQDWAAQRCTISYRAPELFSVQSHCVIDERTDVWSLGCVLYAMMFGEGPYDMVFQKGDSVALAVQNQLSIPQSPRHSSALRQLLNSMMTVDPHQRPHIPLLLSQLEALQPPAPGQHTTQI

- AUC(0-t) [3]: 29 ng·h/mL
- inhibition [4]: inactive
- AUC(0-t) [6]: 13.9 ng·h/mL
- bioavailability [11]: 12%
- half-life [13]: 2.03 h
- half-life [14]: 5.95 h
- Cmax [16]: 8 ng/mL
- Tmax [17]: 1 h
- inhibition [18]: 32%
- Cmax [19]: 48.5 ng/mL
- half-life [20]: 3.64 h
- MRT last [22]: 2.76 h
- MRT(t) [23]: 4.98 h
- clearance [25]: 1.58 mL/min/kg
- Vdss [27]: 0.985 L/kg
Compound: N#CCCn1cc(-c2nc(Nc3ccc4c(ccn4S(=O)(=O)C(F)(F)F)c3)ncc2F)cn1
- Activity (Mus musculus [1]): Active
- Activity (Mus musculus [2]): Active
- Activity (Mus musculus [5]): Active
- Activity (Mus musculus [7]): Active
- Activity (Mus musculus [8]): Active
- Activity (Mus musculus [9]): Active
- Activity (Mus musculus [10]): Active
- Activity (Mus musculus [12]): Active
- Activity (Mus musculus [15]): Active
- Activity (Mus musculus [21]): Active
- Activity (Mus musculus [24]): Active
- Activity (Mus musculus [26]): Active
